In ChEMBL document CHEMBL1201862, “PubChem BioAssay data set” (2004):
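96-well plates; 48 h exposure; 5 concentrations. Endpoints by linear interpolation between flanking doses. Not reached: highest tested concentration assigned. Abbreviation: GI50, concentration required for 50% inhibition of growth.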 Calls of active or inactive are those of the source. Rule as the data show it: active = GI50 up to about 1.1 µM and inactive = higher.

Legend:
Experiment in all cases: growth of human tumour cells (NCI), 48 h
DMS-273 = tested on: DMS-273
SF-268 = tested on: SF-268
HCC 2998 = tested on: HCC 2998
CCRF-CEM = tested on: CCRF-CEM
SNB-75 = tested on: SNB-75
ACHN = tested on: ACHN
HT-29 = tested on: HT-29
DMS-114 = tested on: DMS-114
NCI-H226 = tested on: NCI-H226
UACC-62 = tested on: UACC-62
HCT-116 = tested on: HCT-116
HOP-92 = tested on: HOP-92
NCI-H23 = tested on: NCI-H23
SR = tested on: SR
COLO 205 = tested on: COLO 205
SNB-19 = tested on: SNB-19
KM12 = tested on: KM12
SK-MEL-2 = tested on: SK-MEL-2
HOP-62 = tested on: HOP-62
Malme-3M = tested on: Malme-3M
DLD-1 = tested on: DLD-1
RXF 393 = tested on: RXF 393
A549 = tested on: A549
NCI-H460 = tested on: NCI-H460
OVCAR-4 = tested on: OVCAR-4
RXF 631 = tested on: RXF 631
HCT-15 = tested on: HCT-15
SK-OV-3 = tested on: SK-OV-3
OVCAR-3 = tested on: OVCAR-3
SW-620 = tested on: SW-620
SK-MEL-28 = tested on: SK-MEL-28
UACC-257 = tested on: UACC-257
TK-10 = tested on: TK-10
KM-20L2 = tested on: KM-20L2
IGROV-1 = tested on: IGROV-1
M19-MEL = tested on: M19-MEL
EKVX = tested on: EKVX
MOLT-4 = tested on: MOLT-4
U-251 = tested on: U-251
LOX IMVI = tested on: LOX IMVI
SK-MEL-5 = tested on: SK-MEL-5
A498 = tested on: A498
SN12C = tested on: SN12C
SNB-78 = tested on: SNB-78
HL-60 = tested on: HL-60
LXFL 529 = tested on: LXFL 529
SF-295 = tested on: SF-295
K562 = tested on: K562
CAKI-1 = tested on: CAKI-1
UO-31 = tested on: UO-31
OVCAR-5 = tested on: OVCAR-5
HOP-18 = tested on: HOP-18
M14 = tested on: M14
786-0 = tested on: 786-0
SF-539 = tested on: SF-539
OVCAR-8 = tested on: OVCAR-8
NCI-H522 = tested on: NCI-H522
RPMI-8226 = tested on: RPMI-8226
XF498 = tested on: XF498

Measured: GI50

C=CCN1C(=O)C/C(=C2/CCC(=O)N2CC=C)C1=O
inactive: DMS-273 > 100 µM | SF-268 > 100 µM | HCC 2998 > 100 µM | CCRF-CEM > 100 µM | SNB-75 > 100 µM | ACHN > 100 µM | HT-29 > 100 µM | DMS-114 > 100 µM | NCI-H226 > 100 µM | UACC-62 > 100 µM | HCT-116 > 100 µM | HOP-92 > 100 µM | NCI-H23 > 100 µM | SR > 100 µM | COLO 205 > 100 µM | SNB-19 > 100 µM | KM12 > 100 µM | SK-MEL-2 > 100 µM | HOP-62 88.7 µM | Malme-3M > 100 µM | DLD-1 > 100 µM | RXF 393 > 100 µM | A549 > 100 µM | NCI-H460 > 100 µM | OVCAR-4 > 100 µM | RXF 631 > 100 µM | SK-OV-3 > 100 µM | OVCAR-3 > 100 µM | SW-620 > 100 µM | SK-MEL-28 > 100 µM | UACC-257 > 100 µM | TK-10 > 100 µM | KM-20L2 > 100 µM | IGROV-1 > 100 µM | M19-MEL > 100 µM | EKVX > 100 µM | MOLT-4 > 100 µM | U-251 > 100 µM | LOX IMVI > 100 µM | SK-MEL-5 > 100 µM | A498 > 100 µM | SN12C > 100 µM | SNB-78 > 100 µM | HL-60 > 100 µM | LXFL 529 > 100 µM | SF-295 > 100 µM | K562 > 100 µM | CAKI-1 > 100 µM | UO-31 > 100 µM | OVCAR-5 > 100 µM | HOP-18 > 100 µM | M14 > 100 µM | 786-0 > 100 µM | SF-539 > 100 µM | OVCAR-8 > 100 µM | NCI-H522 > 100 µM
> 100 µM: HCT-15

N#CCCc1nc2ccc(Br)cc2c(=O)n1CCO
inactive: SF-268 > 100 µM | HCC 2998 > 100 µM | CCRF-CEM > 100 µM | SNB-75 > 100 µM | DMS-114 > 100 µM | NCI-H226 > 100 µM | UACC-62 > 100 µM | HOP-92 > 100 µM | NCI-H23 > 100 µM | COLO 205 > 100 µM | KM12 > 100 µM | SK-MEL-2 > 100 µM | HOP-62 > 100 µM | Malme-3M > 100 µM | RPMI-8226 > 100 µM | DLD-1 > 100 µM | XF498 95.7 µM | RXF 393 > 100 µM | A549 > 100 µM | OVCAR-4 > 100 µM | RXF 631 > 100 µM | SK-OV-3 > 100 µM | OVCAR-3 > 100 µM | SW-620 > 100 µM | SK-MEL-28 > 100 µM | UACC-257 > 100 µM | TK-10 > 100 µM | IGROV-1 > 100 µM | M19-MEL > 100 µM | EKVX > 100 µM | MOLT-4 > 100 µM | LOX IMVI > 100 µM | SK-MEL-5 > 100 µM | SN12C > 100 µM | SNB-78 > 100 µM | HL-60 > 100 µM | LXFL 529 > 100 µM | SF-295 > 100 µM | K562 > 100 µM | CAKI-1 > 100 µM | UO-31 > 100 µM | M14 > 100 µM | 786-0 > 100 µM | SF-539 > 100 µM | OVCAR-8 > 100 µM | NCI-H522 > 100 µM
> 100 µM: HCT-15
